Laboratory results from publication PMC7893776, “Selecting an anti-malarial clinical candidate from two potent dihydroisoquinolones” (Malaria Journal, 2021).
Read-outs that look alike come from different tables or passages of the source. Each block holds one compound with its values, some of them ahead of it.

Columns and labels:
[1] = Rat pharmacokinetics, single PO or IV dose; assay type: in vivo, male Sprague Dawley rats
Excerpt: Studies were undertaken to determine the plasma pharmacokinetics of SJ733 and SJ311. These studies included: (i) single oral gavage (PO) or intravenous (IV) dose administration to female C57BL/6 mice; (ii) single PO or IV dose administration to male Sprague Dawley (SD) rats; (iii) single PO or IV dose administration to male beagle dogs; (iv) toxicokinetic (TK) study following single PO administration to male SD rats. The PO and IV formulation used for mouse studies at SJCRH was 1% hydroxypropyl-beta-cyclodextrin (w/v), 10% ethanol (v/v), 10% propylene glycol (v/v), 40% PEG-400 (v/v) and 39% PBS (pH 7.4) isotonic (v/v). Compounds were dosed orally as suspensions, and intravenously as filtered solutions. Compound concentrations were confirmed post filtration using UV spectroscopy. The IV formulation used for rat studies (Monash University) was the same as that used for mice. For PO dosing to rats (Monash University) at 2 mg/kg, a suspension formulation was used containing 0.5% (w/v) hydroxypropyl methylcellulose, 0.5% (v/v) benzyl alcohol and 0.4% (v/v) Tween 80. The formulation used for rat studies at SRI (PO, high dose) was the same as that used in mouse PK studies. The formulation for the high dose TK study at SRI was 0.5% methylcellulose in sterile water. The formulation used for dog studies was the same as that used in mouse PK studies. The PO and IV PK of SJ733 and SJ311 were studied in overnight-fasted male Sprague Dawley rats. Rats had access to water ad libitum throughout the pre- and post-dose sampling period, and access to food was re-instated 4 h post-dose. […] Once collected, blood samples were centrifuged, supernatant plasma was removed and stored frozen (− 20 °C) until LC–MS analysis within 1 week of collection. The high dose levels of both compounds (50, 100, 200 mg/kg, PO, (+)-SJ733/311) were also independently tested by SRI, with a single oral gavage administration. Blood (through jugular vein) and urine were collected at time points up to 72 and 24 h post dose, respectively. Supernatant plasma was removed following centrifugation and stored frozen (− 70 °C) until LC–MS analysis. For toxicology studies, male Sprague Dawley rats were administered 50, 100, 250, 500, or 750 mg/kg of (r)-SJ733 or (r)-SJ311 by oral gavage (one dose per animal). Body weights were recorded on Day 1 prior to dose administration and on Day 4. Blood samples (400 µL) were collected at 4 and 24 h post drug administration from the retro-orbital sinus. Potassium EDTA treated plasma was collected and kept frozen at -70 °C for bioanalytical analysis. For studies at Monash University, rat plasma and urine samples were extracted utilizing protein precipitation with a twofold volume ratio of acetonitrile. SJ733, SJ311, and diazepam (IS) were detected using LC–MS/MS instrumentation. Aliquots (3 µL) were injected onto a Waters Acquity UPLC equipped with a Waters Micromass Xevo TQ MS/MS and separated using a Supelco Ascentis Express RP Amide column (50 × 2.1 mm, 2.7 µm) with a methanol–water gradient containing 0.05% formic acid. Calibration standards were prepared by spiking blank matrix (plasma or urine) and the calibration range was from 1 to 10,000 ng/mL for plasma or 2.5 to 5000 ng/mL for urine. Plasma and urine samples from the high dose rat PK studies were analyzed by SRI. In both matrices, the sample volume was 50 μL, and assay entailed the addition of 50 μL of internal standard solution to the standards and study samples. The compounds were used as reciprocal standards for one another (427 nM SJ733 in Milli-Q-Water for SJ571311 and 437 nM SJ311 in Milli-Q-Water for SJ733). These mixtures were then extracted with 1000 μL of ethyl acetate by vortexing for 10 min on a multi-tube vortex mixer at maximum speed followed by separation of the organic and aqueous phases by centrifugation (18,000×g, 5 min). […]

[2] = Microsomal stability, dog; assay type: in vitro ADME; conditions: dog microsomes; for CLint in vitro: independent replicate to Table 4; for CLint in vivo: scaled up using PBSF
Experimental: (§1) The metabolic stability assay was performed by incubating compounds individually (0.8, 4, or 20 µM) with mouse, rat, dog and human liver microsomes (Fisher, 0.5 mg/mL protein concentration) at 37 °C. The metabolic reaction was initiated by the addition of a NADPH-regenerating system and quenched at various time points by the addition of acetonitrile according to a published method.
(§2) The remaining concentration of each compound was measured as a ratio of peak area to the internal standard. The log peak area ratio was plotted vs. time (h), and the slope was determined to calculate the elimination rate constant [k = (− 2.303) * slope]. If deviation from first order kinetics was evident, only the initial linear portion of the plot was used to determine the rate constate, k. The half-life (h) was calculated as t1/2 = 0.693/k. Intrinsic clearance in vitro was calculated as CLintin vitro = (1000)*(0.693/t1/2*60)/0.5, where microsomal concentration in the reaction solution was 0.5 mg/mL; 1000 and 60 are scaling factors for volume (µL) and time (min), respectively. The intrinsic in vitro clearance was scaled to the intrinsic in vivo clearance using physiology based scaling factor (PBSF): CLint in vivo= CLint in vitro *PBSF: (microsome protein/gram liver) * (gram liver/kg b.w.), with PBSF: 47 (mouse), 47(rat), 58 (dog), 32 (human); and liver weight proportions: 54.9 (mouse), 36.6 (rat), 32.9 (dog) 25.7 (human).

[3] = Microsomal stability, human; assay type: in vitro ADME; conditions: human microsomes; for CLint in vitro: independent replicate to Table 4; for CLint in vivo: scaled up using PBSF
Experimental: as §1, §2

[4] = LogD octanol/pH 7.4 buffer shake flask; assay type: physicochemical
Experimental: Octanol/pH 7.4 buffer partitioning experiments were conducted using a shake flask method, and pKa was assessed by potentiometric titration. Both methods have been described previously.

CYP2C19 = target: T1, CYP2C19 (Homo sapiens, UniProt P33261); experiment: CYP450 inhibition, CYP2C19; assay type: in vitro ADME
T1 construct: purchased Cypex Ltd (Bactosomes)
T1 sequence (P33261 whole entry): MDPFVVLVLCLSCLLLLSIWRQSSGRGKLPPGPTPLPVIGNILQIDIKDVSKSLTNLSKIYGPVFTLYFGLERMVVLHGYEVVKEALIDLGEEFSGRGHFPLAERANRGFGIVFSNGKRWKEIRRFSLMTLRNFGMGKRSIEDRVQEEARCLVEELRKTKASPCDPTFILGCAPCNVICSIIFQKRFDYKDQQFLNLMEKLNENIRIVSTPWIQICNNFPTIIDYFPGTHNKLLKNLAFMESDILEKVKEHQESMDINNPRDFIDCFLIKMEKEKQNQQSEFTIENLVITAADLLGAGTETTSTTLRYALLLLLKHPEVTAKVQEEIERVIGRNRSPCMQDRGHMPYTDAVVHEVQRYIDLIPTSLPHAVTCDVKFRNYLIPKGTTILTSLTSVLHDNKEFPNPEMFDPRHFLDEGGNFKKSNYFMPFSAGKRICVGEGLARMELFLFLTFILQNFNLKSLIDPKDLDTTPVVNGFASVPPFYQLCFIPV

- Half life ([1]; in vivo, po, 20.4 mg/kg): 7.9, 7.9 h
- AUCinf ([1]; in vivo, po, 50 mg/kg): 34.1 ± 8.7 µM·h
- CL/F ([1]; in vivo, po, 50 mg/kg): 56.7 ± 16.7 mL/min/kg
- Cmax ([1]; in vivo, po, 50 mg/kg): 4.4 ± 2 µM
- F% ([1]; in vivo, po, 50 mg/kg): 20.5%
- Half life ([1]; in vivo, po, 50 mg/kg): 3.5 ± 0.4 h
- Tmax ([1]; in vivo, po, 50 mg/kg): 1.2 ± 0.8 h
- V/F ([1]; in vivo, po, 50 mg/kg): 17 ± 7.0 L/kg
- AUCinf ([1]; in vivo, po, 100 mg/kg): 61.9 ± 11.5 µM·h
- CL/F ([1]; in vivo, po, 100 mg/kg): 60 ± 12 mL/min/kg
- Cmax ([1]; in vivo, po, 100 mg/kg): 7.1 ± 0.81 µM
- F% ([1]; in vivo, po, 100 mg/kg): 18.6%
- Half life ([1]; in vivo, po, 100 mg/kg): 4.3 ± 2.2 h
- Tmax ([1]; in vivo, po, 100 mg/kg): 4 h
- V/F ([1]; in vivo, po, 100 mg/kg): 21 ± 8.0 L/kg
- AUCinf ([1]; in vivo, po, 200 mg/kg): 65.8 ± 12.6 µM·h
- CL/F ([1]; in vivo, po, 200 mg/kg): 112 ± 8.3 mL/min/kg
- Cmax ([1]; in vivo, po, 200 mg/kg): 9.4 ± 5.4 µM
- Dose in urine ([1]; in vivo, po, 200 mg/kg): 1.1 ± 0.4%
- F% ([1]; in vivo, po, 200 mg/kg): 9.9%
- Half life ([1]; in vivo, po, 200 mg/kg): 4 h
- Tmax ([1]; in vivo, po, 200 mg/kg): 3.2 ± 4.2 h
- V/F ([1]; in vivo, po, 200 mg/kg): 38 L/kg
- CLint ([2]; 0.8 µM): < 7 µl/min/mg protein
- t1/2 ([2]; 0.8 µM): > 4 h
- CLint ([3]; 0.8 µM): < 7 µl/min/mg protein
- t1/2 ([3]; 0.8 µM): > 4 h
- LogD (7.4) Shake flask [4]: 2.30
Structure (SMILES): N#Cc1cc(NC(=O)[C@H]2c3ccccc3C(=O)N(CC(F)(F)F)[C@@H]2c2cn[nH]c2)ccc1F [(+)-SJ311]

- AUCinf ([1]; in vivo, iv, 0.1 mg/kg): 14.7 ± 0.7 µM·h
- CL ([1]; in vivo, iv, 0.1 mg/kg): 11.3 ± 0.33 mL/min/kg
- Dose in urine ([1]; in vivo, iv, 0.1 mg/kg): 1.6 ± 0.5%
- Half-life ([1]; in vivo, iv, 0.1 mg/kg): 9.2 ± 0.4 h
- Vss ([1]; in vivo, iv, 0.1 mg/kg): 3.3 ± 0.2 L/kg
- AUCinf ([1]; in vivo, po, 1.7 mg/kg): 1.9 ± 0.6^ c h.µM
- Cmax ([1]; in vivo, po, 1.7 mg/kg): 0.7 ± 0.1 µM
- Dose in urine ([1]; in vivo, po, 1.7 mg/kg): 0.5 ± 0.3%
- F% ([1]; in vivo, po, 1.7 mg/kg): 36.7 ± 12%
- Tmax ([1]; in vivo, po, 1.7 mg/kg): 0.7 ± 0.3 h
- AUCinf ([1]; in vivo, po, 1.9 mg/kg): 6.6 ± 1.2 µM·h
- Cmax ([1]; in vivo, po, 1.9 mg/kg): 0.9 ± 0.1 µM
- Dose in urine ([1]; in vivo, po, 1.9 mg/kg): 1.2 ± 0.4%
- F% ([1]; in vivo, po, 1.9 mg/kg): 111 ± 19%
- Half life ([1]; in vivo, po, 1.9 mg/kg): 11.3 ± 6.0 h
- Tmax ([1]; in vivo, po, 1.9 mg/kg): 3.0 ± 0.9 h
- AUCinf ([1]; in vivo, po, 50 mg/kg): 96.3 ± 5.8 µM·h
- CL/F ([1]; in vivo, po, 50 mg/kg): 18.3 ± 1.7 mL/min/kg
- Cmax ([1]; in vivo, po, 50 mg/kg): 11.1 ± 1.2 µM
- F% ([1]; in vivo, po, 50 mg/kg): 74.5%
- Half life ([1]; in vivo, po, 50 mg/kg): 7.7 ± 3.2 h
- Tmax ([1]; in vivo, po, 50 mg/kg): 4 h
- V/F ([1]; in vivo, po, 50 mg/kg): 12 ± 5.0 L/kg
- AUCinf ([1]; in vivo, po, 100 mg/kg): 180 ± 23.2 µM·h
- CL/F ([1]; in vivo, po, 100 mg/kg): 20 ± 1.7 mL/min/kg
- Cmax ([1]; in vivo, po, 100 mg/kg): 16.6 ± 3.2 µM
- F% ([1]; in vivo, po, 100 mg/kg): 69.6%
- Half life ([1]; in vivo, po, 100 mg/kg): 10.3 ± 6.9 h
- Tmax ([1]; in vivo, po, 100 mg/kg): 3.0 ± 1.7 h
- V/F ([1]; in vivo, po, 100 mg/kg): 17 ± 9.0 L/kg
- AUCinf ([1]; in vivo, po, 200 mg/kg): 330 ± 78.4 µM·h
- CL/F ([1]; in vivo, po, 200 mg/kg): 21.7 ± 5 mL/min/kg
- Cmax ([1]; in vivo, po, 200 mg/kg): 27.9 ± 3.8 µM
- Dose in urine ([1]; in vivo, po, 200 mg/kg): 0.2 ± 0.1%
- F% ([1]; in vivo, po, 200 mg/kg): 63.8%
- Half life ([1]; in vivo, po, 200 mg/kg): 7.7 ± 3.3 h
- Tmax ([1]; in vivo, po, 200 mg/kg): 4.0 ± 3.5 h
- V/F ([1]; in vivo, po, 200 mg/kg): 15 ± 9.0 L/kg
- CLint ([2]; 0.8 µM): < 7 µl/min/mg protein
- t1/2 ([2]; 0.8 µM): > 4 h
- CLint in vitro ([2]; 0.8 µM): <7 µl/min/mg protein
- CLint in vivo ([2]; 0.8 µM): <8.3 mL/min/kg
- CLint in vitro ([2]; 4 µM): <7 µl/min/mg protein
- CLint in vivo ([2]; 4 µM): <8.3 mL/min/kg
- CLint in vitro ([2]; 20 µM): <7 µl/min/mg protein
- CLint in vivo ([2]; 20 µM): <8.3 mL/min/kg
- CLint ([3]; 0.8 µM): 45.5 ± 4.0 µl/min/mg protein
- t1/2 ([3]; 0.8 µM): 0.5 ± 0.1 h
- CLint in vitro ([3]; 0.8 µM): 42.6 ± 0.7 µl/min/mg protein
- CLint in vivo ([3]; 0.8 µM): 38.4 ± 0.7 mL/min/kg
- CLint in vitro ([3]; 4 µM): 34.5 ± 0.6 µl/min/mg protein
- CLint in vivo ([3]; 4 µM): 31.0 ± 0.5 mL/min/kg
- CLint in vitro ([3]; 20 µM): 20.6 ± 0.5 µl/min/mg protein
- CLint in vivo ([3]; 20 µM): 18.5 ± 0.4 mL/min/kg
Structure (SMILES): N#Cc1cc(NC(=O)[C@H]2c3ccccc3C(=O)N(CC(F)(F)F)[C@@H]2c2cccnc2)ccc1F [(+)-SJ733]

- CYP2C19 inhibition, in words (CYP2C19): weak inhibitor
- fraction of the IV dose recovered in urine ([1]; IV, 24-h sampling period): ca. 22%
- AUC(0-inf) ([1]; male, Sprague Dawley, plasma, PO, all dose levels 50–200 mg/kg, read-out: mean AUCinf): 34.1 to 65.8 µM·h
- Half-life ([1]; male, Sprague Dawley, plasma, PO, read-out: terminal half-life, mean t1/2): 3.5 to 7.9 h
- logD ([4]; pH 7.4): 2.3
Structure (SMILES): N#Cc1cc(NC(=O)[C@H]2c3ccccc3C(=O)N(CC(F)(F)F)[C@@H]2c2cn[nH]c2)ccc1F [SJ311]
